Test results from patent publication US20120283216A1, “FUNGICIDAL 2-(BICYCLIC ARYLOXY)CARBOXAMIDES” (priority 2009, published 2012).

Key:
Assay type in all cases: in vivo
Botrytis cinerea = experiment: Test C: tomato botrytis, preventive spray on tomato seedlings, visual disease rating; conditions: preventive spray at 40 ppm, rated after 48 h + 3 days; for pest or weed control at 40 ppm: Botrytis cinerea, 120 h, read-out: Test C disease control rating (100 = 100% disease control, 0 = no disease control relative to the controls)
Source text: General protocol for preparing test suspensions for Tests A-C: the test compounds were first dissolved in acetone in an amount equal to 11% of the final volume and then suspended at the desired concentration (in ppm) in acetone and purified water (50/50 mix by volume) containing 250 ppm of the surfactant Trem® 014 (polyhydric alcohol esters). The resulting test suspensions were then used in Tests A-C. Spraying a 40 ppm test suspension to the point of run-off on the test plants was the equivalent of a rate of 800 g/ha.
The test suspension was sprayed to the point of run-off on tomato seedlings. The following day the seedlings were inoculated with a spore suspension of Botrytis cinerea (the causal agent of tomato botrytis) and incubated in saturated atmosphere at 20° C. for 48 h, and then moved to a growth chamber at 27° C. for 3 additional days, after which time disease ratings were visually made.
Results for Tests A-C are given in Table A. In the Table, a rating of 100 indicates 100% disease control and a rating of 0 indicates no disease control (relative to the controls). A dash (-) indicates no test results. All results are from applications of 40 ppm.

Septoria tritici = experiment: Test B: wheat leaf blotch, preventive spray on wheat seedlings, visual disease rating; conditions: preventive spray at 40 ppm, rated after 48 h + 19 days; for pest or weed control at 40 ppm: Zymoseptoria tritici, 504 h, read-out: Test B disease control rating (100 = 100% disease control, 0 = no disease control relative to the controls)
Source text: (§1) General protocol for preparing test suspensions for Tests A-C: the test compounds were first dissolved in acetone in an amount equal to 11% of the final volume and then suspended at the desired concentration (in ppm) in acetone and purified water (50/50 mix by volume) containing 250 ppm of the surfactant Trem® 014 (polyhydric alcohol esters). The resulting test suspensions were then used in Tests A-C. Spraying a 40 ppm test suspension to the point of run-off on the test plants was the equivalent of a rate of 800 g/ha. The test suspension was sprayed to the point of run-off on wheat seedlings. The following day the seedlings were inoculated with a spore suspension of Septoria tritici (the causal agent of wheat leaf blotch) and incubated in a saturated atmosphere at 20° C. for 48 h, and then moved to a growth chamber at 20° C. for 19 days, after which time disease ratings were visually made. Results for Tests A-C are given in Table A. In the Table, a rating of 100 indicates 100% disease control and a rating of 0 indicates no disease control (relative to the controls). A dash (-) indicates no test results. All results are from applications of 40 ppm.

[1] = system: Blumeria graminis f. sp. tritici; experiment: Test A: wheat powdery mildew, preventive spray on wheat seedlings, visual disease rating; conditions: preventive spray at 40 ppm, rated 8 days after inoculation; for pest or weed control at 40 ppm: Blumeria graminis, 192 h, read-out: Test A disease control rating (100 = 100% disease control, 0 = no disease control relative to the controls)
Source text: as §1, with “spore dust” for “spore suspension”, “of Blumeria graminis f. sp. tritici,” for “of Septoria tritici”, “wheat powdery mildew)” for “wheat leaf blotch)”, “in” for “in a saturated atmosphere at 20° C. for 48 h, and then moved to”, “for 8” for “for 19”

Compound | Test C disease control rating (100 = 100% disease control, 0 = no disease control relative to the controls) (Botrytis cinerea) [%] | Test B disease control rating (100 = 100% disease control, 0 = no disease control relative to the controls) (Septoria tritici) [%] | Test A disease control rating (100 = 100% disease control, 0 = no disease control relative to the controls) [1] [%] | pest or weed control at 40 ppm (Botrytis cinerea) [%] | pest or weed control at 40 ppm (Septoria tritici) [%] | pest or weed control at 40 ppm [1] [%]
CCC(Oc1cnc2ccc(I)cc2c1)C(=O)NC(C)(C)COC (single isomer, unassigned) [Compound 61] | 99 | 100 | 98 | – | – | –
CCC(Oc1cnc2ccc(I)cc2c1)C(=O)NC(C)(C)COC (single isomer, unassigned) [Compound 62] | 7 | 0 | 0 | – | – | –
CCC(Oc1ccc2ccc(Br)cc2c1)C(=O)NC(C)(C)C#N (stereo not shown) [Compound 1] | 100 | 100 | 91 | – | – | –
CCC(Oc1ccc2ccc(OC)cc2c1)C(=O)NC(C)(C)C (stereo not shown) [Compound 3, N-(1,1-dimethylethyl)-2-[(7-methoxy-2-naphthalenyl)oxy]butan amide] | – | – | – | 99 | 99 | 100
C#CC(C)(C)NC(=O)C(CC)Oc1ccc2ccc(OC)cc2c1 (stereo not shown) [Compound 4] | 100 | 100 | 97 | – | – | –
CCC(Oc1ccc2ccc(OC(F)F)cc2c1)C(=O)NC(C)(C)C (stereo not shown) [Compound 5] | – | – | – | 100 | 99 | 99
C#CC(C)(C)NC(=O)C(CC)Oc1ccc2ccc(OC(F)F)cc2c1 (stereo not shown) [Compound 6] | 100 | 100 | 98 | – | – | –
CCC(Oc1ccc2ccc(Br)cc2c1)C(=O)NC(C)(C)COC (stereo not shown) [Compound 7, 2-[(7-bromo-2-naphthalenyl)oxy]-N-(2-methoxy-1,1-dimethylethyl)butanamide] | – | – | – | 99 | 99 | 100
CCC(Oc1ccc2ccc(Br)cc2c1)C(=O)NC(C)(C)C (stereo not shown) [Compound 8, 2-[(7-bromo-2-naphthalenyl)oxy]-N-(1,1-dimethylethyl)butanamide] | – | – | – | 99 | 99 | 100
CCC(Oc1ccc2ccc(Br)cc2c1)C(=O)NN(C)C (stereo not shown) [Compound 9] | – | – | – | 99 | 99 | 69
CCC(Oc1ccc2ccc(Br)cc2c1)C(=O)NC(C)(C)COP(C)(C)=O (stereo not shown) [Compound 10] | 98 | 99 | 21 | – | – | –
CCC(Oc1ccc2ccc(Br)cc2c1)C(=O)NC(C)(C)CNC=O (stereo not shown) [Compound 11] | 100 | 99 | 21 | – | – | –
CCC(Oc1ccc2ccc(Br)cc2c1)C(=O)NC(C)(C)CNC(=O)OC(C)(C)C (stereo not shown) [Compound 12] | 0 | 93 | 0 | – | – | –
CCC(Oc1ccc2ccc(Br)cc2c1)C(=O)NC1(C)CC1 (stereo not shown) [Compound 13] | – | – | – | 99 | 98 | 50
CCC(Oc1ccc2ccc(Br)cc2c1)C(=O)NC(C)(C)CN (stereo not shown) [Compound 14] | 99 | 99 | 90 | – | – | –
CCC(Oc1ccc2ccc(Br)cc2c1)C(=O)NC(C)(C)CN=CN(C)C (stereo not shown) [Compound 15, 2-[(7-bromo-2-naphthalenyl)oxy]-N-[2-[[(dimethylamino)methylene]amino]-1,1-dimethylethyl]butanamide] | – | – | – | 100 | 100 | 43
CCC(Oc1ccc2ccc(Br)cc2c1)C(=O)NC(C)(C)CO (stereo not shown) [Compound 16, 2-[(7-bromo-2-naphthalenyl)oxy]-N-(2-hydroxy-1,1-dimethylethyl)-butanamide] | – | – | – | 100 | 99 | 97
CCC(Oc1ccc2ccc(Br)cc2c1)C(=O)NC(C)(C)C=O (stereo not shown) [Compound 17] | 99 | 100 | 89 | – | – | –
CCC(Oc1ccc2ccc(Br)cc2c1)C(=O)NC(C)(C)COC=O (stereo not shown) [Compound 18] | 100 | 99 | 99 | – | – | –
CCC(Oc1ccc2ccc(Br)cc2c1)C(=O)NC(C)(C)C1CO1 (stereo not shown) [Compound 19] | 98 | 60 | 0 | – | – | –
CCC(Oc1ccc2ccc(Br)cc2c1)C(=O)NC(C)(C)COCOC (stereo not shown) [Compound 20, 2-[(7-bromo-2-naphthalenyl)oxy]-N-[2-(methoxymethoxy)-1,1-dimethylethyl]butanamide] | – | – | – | 98 | 99 | 98
CCC(Oc1ccc2ccc(C#N)cc2c1)C(=O)NC(C)(C)COC (stereo not shown) [Compound 21] | 99 | 99 | 91 | – | – | –
C#CC(C)(C)NC(=O)C(CC)Oc1ccc2ccc(Br)cc2c1 (stereo not shown) [Compound 31] | 100 | – | 100 | – | – | –
COC(Oc1ccc2ccc(Br)cc2c1)C(=O)NC(C)(C)CO (stereo not shown) [Compound 98] | 99 | – | 64 | – | – | –
COCOCC(C)(C)NC(=O)C(OC)Oc1ccc2ccc(Br)cc2c1 (stereo not shown) [Compound 99] | 100 | – | 96 | – | – | –
COC(Oc1ccc2ccc(Br)cc2c1)C(=O)NC(C)(C)C (stereo not shown) [Compound 100] | – | – | – | 99 | – | 100
C#Cc1ccc2ncc(OC(CC)C(=O)NC(C)(C)COC)cc2c1 (stereo not shown) [Compound 148] | 100 | – | 100 | – | – | –
